Data published in patent publication US20150065436A1, “INHIBITING INTERACTION BETWEEN HIF-1ALPHA AND p300/CBP WITH HYDROGEN BOND SURROGATE-BASED HELICES” (UNIVERSITY OF SOUTHERN CALIFORNIA, priority 2013, published 2015).

Columns and labels:
15N-labelled p300-CH1 = biological target: T1, 15N-labelled p300-CH1 (Homo sapiens, UniProt Q09472); experiment: 1H-15N HSQC NMR titration; type: binding; details: 69 μM CH1, CH1:HBS 1 ratios 1:1, 1:3, 1:5, 1:10
T1 construct: human p300 CH1 domain (amino acid residues 323-423); GST (cleaved yes); made in house; host or cells: E. coli BL21 (DE3)
T1 sequence (Q09472 323-423): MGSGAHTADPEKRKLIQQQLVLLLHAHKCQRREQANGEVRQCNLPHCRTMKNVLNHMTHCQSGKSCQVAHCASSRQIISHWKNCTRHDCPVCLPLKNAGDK
Protocol: Protein samples were prepared as described above. Uniformly ^15N-labelled p300-CH1 was concentrated to 69 μM in NMR buffer (10 mM Tris pH 8, 50 mM NaCl, 2 mM DTT, and 207 μM ZnSO4) using a 3 kDa MWCO Amicon Ultra centrifugal filter (Millipore) and supplemented with 5% D2O. For HSQC titration experiments, data was collected on a 600 MHz Bruker four-channel NMR system at 25° C. and analyzed with the TopSpin software (Bruker). For Zn^2+ experiments, data were collected on Agilent 600 MHz at 25° C. and analyzed using Sparky3 (Univ. of California).
For the HSQC titration experiments, five and ten molar equivalents of HBS 1 in DMSO were added to ^15N-labelled p300-CH1, and the data were collected as described above. Mean chemical shift difference (ΔδNH) observed for ^1H and ^15N nuclei of various resonances were calculated as described in Williamson, “Using Chemical Shift Perturbation to Characterise Ligand Binding,” Prog. Nucl. Mag. Resonance Spectr. […]
To further characterize the interaction of HBS 1 with the CH1 domain, ^1H-^15N HSQC NMR titration experiments were performed with uniformly ^15N-labeled CH1. […] This cleft includes Trp403 and chemical shift perturbations observed for this residue support the results of the fluorescence titration experiments. […]

VEGF protein = experiment: ELISA of secreted VEGF protein levels; type: cell-based, human; details: HeLa cells, 1 μM to 10 μM, DFO 300 μM
Protocol: The ability of HBS 1 and HBS 2 to inhibit hypoxia-induced transcription of target genes (VEGFA, SLC2A1/GLUT-1, and LOX) was evaluated employing real-time quantitative RT-PCR (qRT-PCR) assays. The data from the qRT-PCR experiments are presented in FIGS. 17A-D. HBS 1 reduced expression levels of VEGF by 50% at 10 μM and greater than 60% at 50 μM showing marked dose dependence. […] Next, it was determined whether this inhibition could be observed for other therapeutically relevant hypoxia-inducible genes. […] To rule out the possibility that the compounds are only efficacious under DFO mimicked hypoxia, the efficacies of the HBS peptides in downregulating VEGF gene expression were compared under two different hypoxia mimetic conditions: DFO and prolonged incubation in an anaerobic pouch. […] Next, the effect of HBS 1 treatment on the levels of secreted VEGF protein was assessed.

[1] = Plasma stability and biodistribution study; type: in vivo; details: 1 mg/kg intravenously, female BALB/c mice
Protocol: Plasma stability and biodistribution studies were performed in 10-week-old female BALB/c mice (Charles River) with 3 mice per time point. Briefly, HBS 1 or peptide 3 was dissolved in 70 μL of sterile PBS and administered intravenously at a dose of 1 mg/kg. Then, 1 mL of blood was collected by cardiac puncture at euthanasia at the following time points: 30 min., 1 h., 2 h., 4 h., 6 h., 8 h., 12 h., 16 h., and 24 h. after drug administration. The experiments were performed under an approved IACUC protocol at the University of Southern California.
Samples were prepared by mixing 30 μL of plasma with 20 μL of 50% MeOH and 50% aqueous 1% formic acid. The mixture was vortexed and mixed with an additional 120 μL of 0.5% formic acid in MeOH/ACN (4:6) and 20 μL of 2.0 μg/mL isoproterenol in MeOH/1% aqueous formic acid (1:1) as an internal standard. The mixture was vortexed again for 2 minutes and centrifuged at 13,000 rpm for 4 minutes. Next, 20 μL of the supernatant was transferred to a new tube and mixed with 180 μL of 50% MeOH/ACN (4:6) and 50% aqueous 1% formic acid. Standard curves were prepared by mixing the plasma from three untreated mice with 20 μL of 50% MeOH and 50% aqueous 1% formic acid prepared with HBS 1 or peptide 3 at a concentration range of 0.05-2 μg/mL.
Samples were analyzed by LC/MS/MS using an Agilent 6210 time-of-flight LC/MS system. HPLC separation was achieved using a Prevail 3u C18 100×2.1 mm column (Grace Davison, Deerfield, Ill., USA). The column temperature was maintained at 20° C. The mobile phase consisted of A (5% acetonitrile and 95% of 0.05% aqueous formic acid) and B (5% of 05% aqueous formic acid and 95% acetonitrile). The following gradient program was used: 0% B (0 min, 0.125 ml/min), 100% B (17 min, 0.125 ml/min). The total run time was 35 minutes. […]
A mouse xenograft tumor model was used to assess the in vivo efficacy of HBS 1. The relative plasma stabilities of HBS 1 and linear peptide 3 in mice were first measured. […]

CC(C)C[C@H](NC(=O)[C@H](C)NC(=O)[C@H](CCCNC(=N)N)NC(=O)[C@H](C)N1CC=CCCC(=O)N[C@@H](CCC(=O)O)C(=O)N[C@@H](CC(C)C)C1=O)C(=O)N[C@@H](CC(=O)O)C(=O)N[C@@H](CCC(N)=O)C(N)=O [HBS 1, XELA*RALDQ-NH2]
shift in CH1 resonances on addition of compound (15N-labelled p300-CH1): concentration-dependent shift in the resonances of several CH1 residues | secreted VEGF protein levels (VEGF protein): downregulates VEGF protein levels in HeLa cells in a dose-dependent manner | pattern of plasma decay [1]: bi-exponential pattern of decay | plasma concentrations over the same time intervals ([1]; 30 min to 24 h): much higher concentrations as compared to peptide 3
